Results: publication PMC9712021 (Advances in Pharmacological and Pharmaceutical Sciences, 2022)

How the values were obtained:
[1] = Hemolytic activity in mice erythrocytes; format: cell-based, Mus musculus; details: male, Swiss albino, mouse, pH 7.4, 37°C, 2 h
Experimental: This test was performed on adult Swiss albino mouse (Mus musculus) erythrocytes. The mouse was collected from the Central Animal House of the Federal University of Piaui, Brazil. It was allowed free access to standard food and water ad libitum and was kept under controlled lighting (12 h dark/light cycles) at 24 ± 2°C. Blood was collected from the retro-orbital plexus of the mouse (male, 24 gm body weight). Hemolytic activity in mouse erythrocytes was performed, according to Jamialahmadi et al..

[2] = DPPH radical scavenging capacity assay; details: 0.9–14.4 μg/mL; standard Trolox
Experimental: The DPPH assay was performed according to the method described by Abderrahim et al.. Briefly, a solution containing 300 μL of monoterpenes (0.9–14.4 μg/mL) was added to 2.7 mL of DPPH^• solution (0.5 mM in ethanol). After 30 min, the absorbance was measured using a spectrophotometer (Shimadzu, Japan) at 517 nm.

[3] = system: S. cerevisiae EG103 (SODWT); test: S. cerevisiae central disc test, oxidative damage, strain SODWT; format: cell-based, Saccharomyces cerevisiae; design: unit not given here
Description: (§1) The central disc test was done according to the method presented by Islam et al.. Superoxide dismutase (CuZnSOD-Sod1) is a cytosolic enzyme that is faulty in strain EG118, whereas mitochondrial SOD is faulty in strain EG110 (MnSOD-Sod2). The strain EG133 has both Sod1 and Sod2 defects, while EG223 has a cytosolic catalase deficiency (Cat1). While EG103 is a competent strain that is identical to the wild-type (SODWT), EG is a dual isogenic strain for the Sod1 and Cat1 genes.

[4] = system: S. cerevisiae EG118 (Sod1∆); test: S. cerevisiae central disc test, oxidative damage, strain Sod1∆; format: cell-based, Saccharomyces cerevisiae
Description: as §1

[5] = system: S. cerevisiae EG110 (Sod2∆); test: S. cerevisiae central disc test, oxidative damage, strain Sod2∆; format: cell-based, Saccharomyces cerevisiae
Description: as §1

[6] = system: S. cerevisiae EG133 (Sod1∆Sod2∆); test: S. cerevisiae central disc test, oxidative damage, strain Sod1∆Sod2∆; format: cell-based, Saccharomyces cerevisiae
Description: as §1

[7] = system: S. cerevisiae EG223 (Cat1∆); test: S. cerevisiae central disc test, oxidative damage, strain Cat1∆; format: cell-based, Saccharomyces cerevisiae
Description: as §1

[8] = system: S. cerevisiae EG (Sod1∆Cat1∆); test: S. cerevisiae central disc test, oxidative damage, strain Sod1∆Cat1∆; format: cell-based, Saccharomyces cerevisiae
Description: as §1

[9] = system: S. cerevisiae strains (SODWT, Sod1Δ, Sod2Δ, Cat1Δ, Sod1/Sod2Δ, Cat1Δ/Sod1Δ); test: In vivo antioxidant (S. cerevisiae) test, all strains tested; format: cell-based, Saccharomyces cerevisiae; details: all strains and concentrations tested
Description: as §1

[10] = design: method as in Oliveira [41]; details: concentrations from 7.83 to 500 μg/mL; ref Oliveira [41]; cited from earlier work

Compound: C=CCc1ccc(OC)cc1 [Estragole, estragole]
- hemolysis at 2 h, 31.25 μg/mL ([1]; 31.25 μg/mL): 1.67 ± 0.35%
- hemolysis at 2 h, 62.5 μg/mL ([1]; 62.5 μg/mL): 3.49 ± 0.26%
- hemolysis at 2 h, 125 μg/mL ([1]; 125 μg/mL): 4.45 ± 0.47%
- hemolysis at 2 h, 250 μg/mL ([1]; 250 μg/mL): 8.21 ± 0.35%
- hemolysis at 2 h, 500 μg/mL ([1]; 500 μg/mL): 10.3 ± 1.35%
- DPPH radical scavenging activity [2]: highest scavenging activity
- oxidative damage ([3]; 0.9 μg/mL): 2.00 ± 0.54
- oxidative damage ([3]; 1.8 μg/mL): 1.50 ± 0.70
- oxidative damage ([3]; 7.2 μg/mL): 2.00 ± 1.41
- oxidative damage ([3]; 14.4 μg/mL): 2.50 ± 0.70
- oxidative damage ([3]; 32 μg/mL): 2.00 ± 0.54
- oxidative damage ([3]; 64 μg/mL): 2.00 ± 0.54
- oxidative damage ([3]; 128 μg/mL): 1.50 ± 0.70
- oxidative damage ([3]; 3.6 mg/mL): 1.00 ± 1.41
- oxidative damage ([3]; 256 mg/mL): 3.50 ± 0.70
- oxidative damage ([3]; 500 mg/mL): 1.50 ± 0.70
- oxidative damage ([4]; 0.9 μg/mL): 2.00 ± 1.41
- oxidative damage ([4]; 1.8 μg/mL): 1.50 ± 0.70
- oxidative damage ([4]; 7.2 μg/mL): 2.00 ± 1.41
- oxidative damage ([4]; 14.4 μg/mL): 2.00 ± 0.54
- oxidative damage ([4]; 32 μg/mL): 2.50 ± 0.70
- oxidative damage ([4]; 64 μg/mL): 2.50 ± 0.70
- oxidative damage ([4]; 128 μg/mL): 2.50 ± 0.70
- oxidative damage ([4]; 3.6 mg/mL): 2.50 ± 0.70
- oxidative damage ([4]; 256 mg/mL): 2.50 ± 0.70
- oxidative damage ([4]; 500 mg/mL): 1.50 ± 0.70
- oxidative damage ([5]; 0.9 μg/mL): 3.00 ± 1.41
- oxidative damage ([5]; 1.8 μg/mL): 3.50 ± 0.70
- oxidative damage ([5]; 7.2 μg/mL): 2.00 ± 0.54
- oxidative damage ([5]; 14.4 μg/mL): 3.50 ± 0.70
- oxidative damage ([5]; 32 μg/mL): 2.00 ± 0.54
- oxidative damage ([5]; 64 μg/mL): 3.50 ± 0.70
- oxidative damage ([5]; 128 μg/mL): 3.50 ± 0.70
- oxidative damage ([5]; 3.6 mg/mL): 2.00 ± 0.54
- oxidative damage ([5]; 256 mg/mL): 2.50 ± 0.70
- oxidative damage ([5]; 500 mg/mL): 3.00 ± 1.41
- oxidative damage ([6]; 0.9 μg/mL): 3.50 ± 0.70
- oxidative damage ([6]; 1.8 μg/mL): 3.50 ± 0.70
- oxidative damage ([6]; 7.2 μg/mL): 2.50 ± 0.70
- oxidative damage ([6]; 14.4 μg/mL): 3.50 ± 0.70
- oxidative damage ([6]; 32 μg/mL): 2.50 ± 0.70
- oxidative damage ([6]; 64 μg/mL): 1.50 ± 0.70
- oxidative damage ([6]; 128 μg/mL): 3.00 ± 1.41
- oxidative damage ([6]; 3.6 mg/mL): 2.50 ± 0.70
- oxidative damage ([6]; 256 mg/mL): 2.50 ± 2.12
- oxidative damage ([6]; 500 mg/mL): 2.50 ± 0.70
- oxidative damage ([7]; 0.9 μg/mL): 3.00 ± 1.41
- oxidative damage ([7]; 1.8 μg/mL): 4.50 ± 0.70
- oxidative damage ([7]; 7.2 μg/mL): 1.50 ± 2.12
- oxidative damage ([7]; 14.4 μg/mL): 4.50 ± 2.12
- oxidative damage ([7]; 32 μg/mL): 3.00 ± 1.41
- oxidative damage ([7]; 64 μg/mL): 7.00 ± 1.41^∗
- oxidative damage ([7]; 128 μg/mL): 2.50 ± 0.70
- oxidative damage ([7]; 3.6 mg/mL): 4.00 ± 1.41
- oxidative damage ([7]; 256 mg/mL): 3.00 ± 1.41
- oxidative damage ([7]; 500 mg/mL): 4.50 ± 0.70
- oxidative damage ([8]; 0.9 μg/mL): 3.50 ± 0.70
- oxidative damage ([8]; 1.8 μg/mL): 4.00 ± 2.82
- oxidative damage ([8]; 7.2 μg/mL): 3.50 ± 0.70
- oxidative damage ([8]; 14.4 μg/mL): 5.00 ± 0.0
- oxidative damage ([8]; 32 μg/mL): 4.50 ± 0.70
- oxidative damage ([8]; 64 μg/mL): 3.00 ± 1.41
- oxidative damage ([8]; 128 μg/mL): 4.50 ± 2.12
- oxidative damage ([8]; 256 μg/mL): 3.00 ± 2.82
- oxidative damage ([8]; 3.6 mg/mL): 4.00 ± 1.41
- oxidative damage ([8]; 500 mg/mL): 3.50 ± 0.70
- percentage modulation of oxidative damage caused by the stressor H2O2 [9]: more than 60%
- antioxidant capacity [10]: mild antioxidant capacity
